According to ChEMBL document CHEMBL1132005, “Structure-activity relationship in two series of aminoalkyl substituted coumarin inhibitors of gyrase B” (1999):
≈ marks a conversion by molar mass, not a printed value.

Key:
Enterococcus faecium = assay: In vitro antibacterial activity against Enterococcus faecium 02D31P2 VanTeiEry-R; type: functional
[1] = target: DNA gyrase (Escherichia coli) (UniProt P0AES6+P0AES4); assay: In vitro inhibition of supercoiling activity of Escherichia coli DNA gyrase as the ratio of IC50 of Novobiocin and IC50 of compound; type: protein-complex assay
[2] = test system: Staphylococcus epidermidis; assay: In vitro antibacterial activity against Staphylococcus epidermidis 012GO39 OxaTei-R; type: functional
Staphylococcus aureus [3] = assay: In vitro antibacterial activity against Staphylococcus aureus 011GO76 OfloOxaEry-R; type: functional
Staphylococcus aureus [4] = assay: In vitro antibacterial activity against Staphylococcus aureus 011HT1 Nov-R; type: functional
Staphylococcus aureus [5] = assay: In vitro antibacterial activity against Staphylococcus aureus 011HT3; type: functional
Streptococcus pyogenes = assay: In vitro antibacterial activity against Streptococcus pyogenes O2A1UC1

Structure (SMILES)	MIC (Enterococcus faecium)	Ratio [1]	MIC [2]	MIC (Staphylococcus aureus [3])	MIC (Staphylococcus aureus [4])	MIC (Staphylococcus aureus [5])	MIC (Streptococcus pyogenes)
CNCCOc1cc(=O)oc2c(C)c(O[C@@H]3OC(C)(C)[C@H](OC)[C@@H](OC(=O)c4ccc(C)[nH]4)[C@H]3O)ccc12	> 40 µg/mL	2.3	1.2 µg/mL (≈ 2.26 µM)	2.5 µg/mL (≈ 4.71 µM)	20 µg/mL (≈ 37.7 µM)	2.5 µg/mL (≈ 4.71 µM)	5 µg/mL (≈ 9.42 µM)
CO[C@@H]1[C@@H](OC(=O)c2ccc(C)[nH]2)[C@@H](O)[C@H](Oc2ccc3c(Cn4cncn4)cc(=O)oc3c2C)OC1(C)C	40 µg/mL (≈ 74.3 µM)	0.4	0.6 µg/mL (≈ 1.11 µM)	2.5 µg/mL (≈ 4.64 µM)	40 µg/mL (≈ 74.3 µM)	1.2 µg/mL (≈ 2.23 µM)	2.5 µg/mL (≈ 4.64 µM)
CO[C@@H]1[C@@H](OC(=O)c2ccc(C)[nH]2)[C@@H](O)[C@H](Oc2ccc3c(CN4CCC(O)CC4)cc(=O)oc3c2C)OC1(C)C	20 µg/mL (≈ 35 µM)	0.22	0.6 µg/mL (≈ 1.05 µM)	1.2 µg/mL (≈ 2.1 µM)	20 µg/mL (≈ 35 µM)	0.6 µg/mL (≈ 1.05 µM)	2.5 µg/mL (≈ 4.38 µM)
CO[C@@H]1[C@@H](OC(=O)c2ccc(C)[nH]2)[C@@H](O)[C@H](Oc2ccc3c(CN)cc(=O)oc3c2C)OC1(C)C	> 40 µg/mL	1.8	5 µg/mL (≈ 10.3 µM)	40 µg/mL (≈ 82.2 µM)	> 40 µg/mL	10 µg/mL (≈ 20.6 µM)	40 µg/mL (≈ 82.2 µM)
CO[C@@H]1[C@@H](OC(=O)c2ccc(C)[nH]2)[C@@H](O)[C@H](Oc2ccc3c(Cn4ccnc4)cc(=O)oc3c2C)OC1(C)C	> 40 µg/mL	1	1.2 µg/mL (≈ 2.23 µM)	5 µg/mL (≈ 9.3 µM)	> 40 µg/mL	1.2 µg/mL (≈ 2.23 µM)	5 µg/mL (≈ 9.3 µM)
CO[C@@H]1[C@@H](OC(=O)c2ccc(C)[nH]2)[C@@H](O)[C@H](Oc2ccc3c(CN4CCC[C@H]4CO)cc(=O)oc3c2C)OC1(C)C	20 µg/mL (≈ 35 µM)	0.3	1.2 µg/mL (≈ 2.1 µM)	1.2 µg/mL (≈ 2.1 µM)	10 µg/mL (≈ 17.5 µM)	0.6 µg/mL (≈ 1.05 µM)	2.5 µg/mL (≈ 4.38 µM)
CO[C@@H]1[C@@H](OC(=O)c2ccc(C)[nH]2)[C@@H](O)[C@H](Oc2ccc3c(OCCN4CCOC(CO)C4)cc(=O)oc3c2C)OC1(C)C (some centres undefined)	> 40 µg/mL	0.25	0.6 µg/mL (≈ 0.973 µM)	> 40 µg/mL	40 µg/mL (≈ 64.9 µM)	1.2 µg/mL (≈ 1.95 µM)	10 µg/mL (≈ 16.2 µM)
CO[C@@H]1[C@@H](OC(=O)c2ccc(C)[nH]2)[C@@H](O)[C@H](Oc2ccc3c(CSc4nc[nH]n4)cc(=O)oc3c2C)OC1(C)C	2.5 µg/mL (≈ 4.38 µM)	0.4	0.3 µg/mL (≈ 0.526 µM)	0.6 µg/mL (≈ 1.05 µM)	10 µg/mL (≈ 17.5 µM)	0.3 µg/mL (≈ 0.526 µM)	0.6 µg/mL (≈ 1.05 µM)
CO[C@@H]1[C@@H](OC(=O)c2ccc(C)[nH]2)[C@@H](O)[C@H](Oc2ccc3c(CN4CCN(C)CC4)cc(=O)oc3c2C)OC1(C)C	> 40 µg/mL	0.46	2.5 µg/mL (≈ 4.39 µM)	5 µg/mL (≈ 8.78 µM)	40 µg/mL (≈ 70.2 µM)	5 µg/mL (≈ 8.78 µM)	10 µg/mL (≈ 17.6 µM)
CO[C@@H]1[C@@H](OC(=O)c2ccc(C)[nH]2)[C@@H](O)[C@H](Oc2ccc3c(OCCN4CCOCC4)cc(=O)oc3c2C)OC1(C)C	20 µg/mL (≈ 34.1 µM)	0.22	0.15 µg/mL (≈ 0.256 µM)	0.6 µg/mL (≈ 1.02 µM)	10 µg/mL (≈ 17 µM)	0.3 µg/mL (≈ 0.511 µM)	2.5 µg/mL (≈ 4.26 µM)
CO[C@@H]1[C@@H](OC(=O)c2ccc(C)[nH]2)[C@@H](O)[C@H](Oc2ccc3c(CN4CCNCC4c4ccccc4)cc(=O)oc3c2C)OC1(C)C (some centres undefined)	5 µg/mL (≈ 7.91 µM)	0.17	0.6 µg/mL (≈ 0.95 µM)	5 µg/mL (≈ 7.91 µM)	5 µg/mL (≈ 7.91 µM)	1.2 µg/mL (≈ 1.9 µM)	1.2 µg/mL (≈ 1.9 µM)
CO[C@@H]1[C@@H](OC(=O)c2ccc(C)[nH]2)[C@@H](O)[C@H](Oc2ccc3c(OCCN)cc(=O)oc3c2C)OC1(C)C	20 µg/mL (≈ 38.7 µM)	0.81	1.2 µg/mL (≈ 2.32 µM)	5 µg/mL (≈ 9.68 µM)	20 µg/mL (≈ 38.7 µM)	2.5 µg/mL (≈ 4.84 µM)	5 µg/mL (≈ 9.68 µM)
CO[C@@H]1[C@@H](OC(=O)c2ccc(C)[nH]2)[C@@H](O)[C@H](Oc2ccc3c(OCCN(C)C)cc(=O)oc3c2C)OC1(C)C	> 40 µg/mL	0.57	2.5 µg/mL (≈ 4.59 µM)	5 µg/mL (≈ 9.18 µM)	40 µg/mL (≈ 73.4 µM)	2.5 µg/mL (≈ 4.59 µM)	10 µg/mL (≈ 18.4 µM)
CO[C@@H]1[C@@H](OC(=O)c2ccc(C)[nH]2)[C@@H](O)[C@H](Oc2ccc3c(CN4CCNCC4)cc(=O)oc3c2C)OC1(C)C	> 40 µg/mL	2.3	5 µg/mL (≈ 9 µM)	20 µg/mL (≈ 36 µM)	> 40 µg/mL	10 µg/mL (≈ 18 µM)	20 µg/mL (≈ 36 µM)
CO[C@@H]1[C@@H](OC(N)=O)[C@@H](O)[C@H](Oc2ccc3c(O)c(NC(=O)c4ccc(O)c(CC=C(C)C)c4)c(=O)oc3c2C)OC1(C)C [NOVOBIOCIN]	0.3 µg/mL (≈ 0.49 µM)	–	0.08 µg/mL (≈ 0.131 µM)	< 0.04 µg/mL	20 µg/mL (≈ 32.6 µM)	< 0.04 µg/mL	0.15 µg/mL (≈ 0.245 µM)
